Patent US10435399B2, “HDAC6 inhibitory heterocyclic compound” (TAKEDA PHARMACEUTICAL COMPANY LIMITED, priority 2017, dated 2019)

Molecular target: T1, HDAC6 enzyme (Homo sapiens, UniProt Q9UBN7)
T1 construct: transducing full length HDAC6 gene into Sf-9 insect cells; GST; purchased SignalChem; host or cells: Sf-9 insect cells
T1 sequence (Q9UBN7 1-1215): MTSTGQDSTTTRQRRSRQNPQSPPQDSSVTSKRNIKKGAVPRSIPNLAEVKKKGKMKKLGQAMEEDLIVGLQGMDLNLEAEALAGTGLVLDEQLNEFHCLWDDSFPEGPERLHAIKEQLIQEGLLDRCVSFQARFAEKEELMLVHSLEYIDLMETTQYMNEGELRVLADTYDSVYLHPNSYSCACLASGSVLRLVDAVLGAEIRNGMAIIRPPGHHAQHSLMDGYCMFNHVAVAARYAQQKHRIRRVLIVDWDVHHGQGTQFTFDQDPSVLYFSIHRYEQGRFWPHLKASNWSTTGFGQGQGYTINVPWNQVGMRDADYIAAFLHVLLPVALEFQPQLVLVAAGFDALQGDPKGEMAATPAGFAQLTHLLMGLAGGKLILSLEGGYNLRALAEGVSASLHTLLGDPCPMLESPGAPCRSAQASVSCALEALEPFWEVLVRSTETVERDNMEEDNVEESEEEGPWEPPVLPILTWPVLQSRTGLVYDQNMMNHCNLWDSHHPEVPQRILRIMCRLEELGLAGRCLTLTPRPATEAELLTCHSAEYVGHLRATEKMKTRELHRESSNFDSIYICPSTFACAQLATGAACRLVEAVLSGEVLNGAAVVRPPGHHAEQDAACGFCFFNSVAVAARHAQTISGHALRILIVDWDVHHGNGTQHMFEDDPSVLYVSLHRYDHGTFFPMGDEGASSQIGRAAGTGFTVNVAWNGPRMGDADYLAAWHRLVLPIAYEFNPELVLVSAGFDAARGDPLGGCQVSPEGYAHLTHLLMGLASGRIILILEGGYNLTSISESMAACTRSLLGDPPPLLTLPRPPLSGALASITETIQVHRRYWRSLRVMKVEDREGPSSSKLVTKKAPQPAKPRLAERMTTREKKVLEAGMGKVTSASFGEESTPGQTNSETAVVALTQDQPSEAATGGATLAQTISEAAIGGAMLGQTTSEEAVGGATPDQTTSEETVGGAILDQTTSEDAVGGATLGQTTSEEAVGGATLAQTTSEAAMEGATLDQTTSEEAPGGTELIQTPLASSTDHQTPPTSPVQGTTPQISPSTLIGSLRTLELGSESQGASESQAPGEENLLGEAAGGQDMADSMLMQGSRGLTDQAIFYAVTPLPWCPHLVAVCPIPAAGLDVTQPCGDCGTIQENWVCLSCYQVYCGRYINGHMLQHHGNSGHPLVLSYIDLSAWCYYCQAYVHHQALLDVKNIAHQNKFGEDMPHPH
Test: HDAC6 enzyme inhibitory activity (HDAC-Glo I/II Assay kit)
Format: biochemical
Details: 10 μM; wells without enzyme = 100% inhibition; read-out: HDAC6 inhibitory rate (%) (10 μM)
Procedure, shortened: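 Full-length human HDAC6 (GST-purified, Sf-9 expressed) preincubated with compound 60 min at room temperature in Tris-HCl pH 7.5 buffer with MgCl2, KCl, NaCl, glutathione, Tween-20. HDAC-Glo I/II substrate-developer then added, 20 min room temperature, luminescence read. Inhibition relative to no-enzyme wells as 100%.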

inhibition at 10 µM | SMILES
96% | O=C1c2cc(-c3nnc(C(F)F)o3)cnc2CN1Cc1ccccc1Cl [Example 340, 6-(2-chlorobenzyl)-3-(5-(difluoromethyl)-1,3,4-oxadiazol-2-yl)-6,7-dihydro-5H-pyrrolo[3,4-b]pyridin-5-one]
82% | CC(C)(C)OC(=O)NCC1(N2Cc3c(F)cc(-c4nnc(C(F)F)o4)cc3C2=O)CCCCC1 [Example 341, tert-butyl ((1-(6-(5-(difluoromethyl)-1,3,4-oxadiazol-2-yl)-4-fluoro-1-oxo-1,3-dihydro-2H-isoindol-2-yl)cyclohexyl)-methyl)carbamate]
100% | O=C1c2cc(-c3nnc(C(F)F)o3)cnc2CN1Cc1cccc(Cl)c1 [Example 342, 6-(3-chlorobenzyl)-3-(5-(difluoromethyl)-1,3,4,- oxadiazol-2-yl)-6,7-dihydro-5H-pyrrolo[3,4-b]pyridin-5-one]
100% | O=C1c2cc(-c3nnc(C(F)F)o3)cc(F)c2CN1C[C@@H]1CC(F)(F)CN1S(=O)(=O)C1CC1 [Example 343, 2-(((2S)-1-(cyclopropyl-sulfonyl)-4,4-difluoro-pyrrolidin-2-yl)methyl)-6-(5-(difluoromethyl)-1,3,4-oxadiazol-2-yl)-4-fluoroisoindolin-1-one]
100% | O=C1c2cc(-c3nnc(C(F)F)o3)cc(F)c2CN1C[C@@H]1CC(F)(F)CN1S(=O)(=O)CC(F)(F)F [Example 344, 6-(5-(difluoromethyl)-1,3,4-oxadiazol-2-yl)-2-(((2S)-4,4-difluoro-1-((2,2,2-trifluoro-ethyl)sulfonyl)pyrrolidin-2-yl)methyl)-4-fluoroiso-indolin-1-one]
99% | O=C1c2cc(-c3nnc(C(F)F)o3)cc(F)c2CN1C[C@@H]1CC(F)(F)CN1S(=O)(=O)c1cccc(F)c1 [Example 345, 2-(((2S)-4,4-difluoro-1-((3-fluorophenyl)sulfonyl)-pyrrolidin-2-yl)methyl)-6-(5-(difluoromethyl)-1,3,4-oxadiazol-2-yl)-4-fluoro-isoindolin-1-one]
94% | O=C1c2cc(-c3nnc(C(F)F)o3)cnc2CN1Cc1ccncc1 [Example 346, 3-(5-(difluoromethyl)-1,3,4-oxadiazol-2-yl)-6-(pyridin-4-ylmethyl)-6,7-dihydro-5H-pyrrolo[3,4-b]pyridin-5-one]
98% | O=C1c2cc(-c3nnc(C(F)F)o3)cnc2CN1C1(c2ccc(F)cc2)CC1 [Example 347, 3-(5-(difluoromethyl)-1,3,4-oxadiazol-2-yl)-6-(1-(4-fluorophenyl)cyclopropyl)-6,7-dihydro-5H-pyrrolo[3,4-b]pyridin-5-one]
99% | O=C1c2cc(-c3nnc(C(F)F)o3)cnc2CN1Cc1ccc(F)cc1F [Example 348, 6-(2,4-difluorobenzyl)-3-(5-(difluoromethyl)-1,3,4-oxadiazol-2-yl)-6,7-dihydro-5H-pyrrolo-[3,4-b]pyridin-5-one]
99% | Cc1cc(CN2Cc3ncc(-c4nnc(C(F)F)o4)cc3C2=O)no1 [Example 349, 3-(5-(difluoromethyl)-1,3,4-oxadiazol-2-yl)-6-((5-methyl-1,2-oxazol-3-yl)methyl)-6,7-dihydro-5H-pyrrolo[3,4-b]pyridin-5-one]
99% | O=C1c2cc(-c3nnc(C(F)F)o3)cnc2CN1C1(c2ccccc2F)CC1 [Example 350, 3-(5-(difluoromethyl)-1,3,4-oxadiazol-2-yl)-6-(1-(2-fluorophenyl)cyclopropyl)-6,7-dihydro-5H-pyrrolo[3,4-b]pyridin-5-one]
98% | O=C1c2cc(-c3nnc(C(F)F)o3)cnc2CN1Cc1ccccc1F [Example 351, 3-(5-(difluoromethyl)-1,3,4-oxadiazol-2-yl)-6-(2-fluoro-benzyl)-6,7-dihydro-5H-pyrrolo[3,4-b]pyridin-5-one]

The next lines start with the compound.

SMILES | inhibition at 10 µM
O=C1c2cc(-c3nnc(C(F)F)o3)cc(F)c2CN1C[C@@H]1CCCN1 [Example 326, 6-(5-(difluoromethyl)-1,3,4-oxadiazol-2-yl)-4-fluoro-2-((2S)-pyrrolidin-2-ylmethyl)-isoindolin-1-one] | 86%
O=C1c2cc(-c3nnc(C(F)F)o3)cnc2CN1Cc1cccc(F)c1F [Example 327, 6-(2,3-difluorobenzyl)-3-(5-(difluoromethyl)-1,3,4-oxadiazol-2-yl)-6,7-dihydro-5H-pyrrolo[3,4-b]pyridin-5-one] | 99%
O=C1c2cc(-c3nnc(C(F)F)o3)cnc2CN1Cc1ccc(F)cc1 [Example 328, 3-(5-(difluoromethyl)-1,3,4-oxadiazol-2-yl)-6-(4-fluorobenzyl)-6,7-dihydro-5H-pyrrolo[3,4-b]pyridin-5-one] | 98%
O=C1c2cc(-c3nnc(C(F)F)o3)cnc2CN1Cc1c(F)cccc1F [Example 329, 6-(2,6-difluorobenzyl)-3-(5-(difluoromethyl)-1,3,4-oxadiazol-2-yl)-6,7-dihydro-5H-pyrrolo[3,4-b]pyridin-5-one] | 99%
O=C1c2cc(-c3nnc(C(F)F)o3)ccc2CN1c1ccccc1-n1cccn1 [Example 330, 6-(5-(difluoromethyl)-1,3,4-oxadiazol-2-yl)-2-(2-(1H-pyrazol-1-yl)phenyl)-isoindolin-1-one] | 99%
CC(C)(C)OC(=O)N1CC(F)(F)C[C@H]1CN1Cc2c(F)cc(-c3nnc(C(F)F)o3)cc2C1=O [Example 331, tert-butyl (2S)-2-((6-(5-(difluoromethyl)-1,3,4-oxadiazol-2-yl)-4-fluoro-1-oxo-1,3-dihydro-2H-isoindol-2-yl)methyl)-4,4-difluoropyrrolidine-1-carboxylate] | 97%
COc1ccc(CN2Cc3ncc(-c4nnc(C(F)F)o4)cc3C2=O)cc1 [Example 332, 3-(5-(difluoromethyl)-1,3,4-oxadiazol-2-yl)-6-(4-methoxybenzyl)-6,7-dihydro-5H-pyrrolo[3,4-b]pyridin-5-one] | 99%
O=C1c2cc(-c3nnc(C(F)F)o3)cnc2CN1Cc1ccc(Cl)cc1 [Example 333, 6-(4-chlorobenzyl)-3-(5-(difluoromethyl)-1,3,4-oxadiazol-2-yl)-6,7-dihydro-5H-pyrrolo[3,4-b]pyridin-5-one] | 97%
O=C1c2cc(-c3nnc(C(F)F)o3)cnc2CN1Cc1ccc(C(F)(F)F)cc1 [Example 334, 3-(5-(difluoromethyl)-1,3,4-oxadiazol-2-yl)-6-(4-(trifluoromethyl)benzyl)-6,7-dihydro-5H-pyrrolo[3,4-b]pyridin-5-one] | 93%
O=C1c2cc(-c3nnc(C(F)F)o3)cnc2CN1Cc1ccc(OC(F)F)cc1 [Example 335] | 101%
O=C1c2cc(-c3nnc(C(F)F)o3)cc(F)c2CN1C[C@@H]1CCCN1S(=O)(=O)C1CC1 [Example 336, 2-(((2S)-1-(cyclopropyl-sulfonyl)pyrrolidin-2-yl)methyl)-6-(5-(difluoromethyl)-1,3,4-oxadiazol-2-yl)-4-fluoroisoindolin-1-one] | 102%
O=C1c2cc(-c3nnc(C(F)F)o3)ccc2CN1[C@@H]1CCCC[C@H]1N(C(=O)C(F)F)c1ccccn1 [Example 337, N-((1R,2R)-2-(6-(5-(difluoromethyl)-1,3,4-oxadiazol-2-yl)-1-oxo-1,3-dihydro-2H-isoindol-2-yl)-cyclohexyl)-2,2-difluoro-N-(pyridin-2-yl)acetamide] | 101%
O=C1c2cc(-c3nnc(C(F)F)o3)cnc2CN1Cc1ccc(F)c(F)c1 [Example 338, 6-(3,4-difluorobenzyl)-3-(5-(difluoromethyl)-1,3,4-oxadiazol-2-yl)-6,7-dihydro-5H-pyrrolo[3,4-b]pyridin-5-one] | 97%
O=C1c2cc(-c3nnc(C(F)F)o3)cnc2CN1Cc1ccccc1C(F)(F)F [Example 339, 3-(5-(difluoromethyl)-1,3,4-oxadiazol-2-yl)-6-(2-(trifluoromethyl)benzyl)-6,7-dihydro-5H-pyrrolo[3,4-b]-pyridin-5-one] | 96%
